Test results as given in PubChem BioAssay AID1918998 (Molecular Pharmacology Branch, DTP, NCI, 2023).

Test system: 521955-158-R2-J5-PDC complex spheroid growth
Experiment: Anticancer human tumor 521955-158-R2-J5-PDC patient-derived pancreatic carcinoma cell line growth inhibition [AhR]
Conditions: for IC50: curve of first compound; for viability, T/C: stronger effect = lower value
Procedure, shortened: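 Spheroids combined tumor cells with HUVEC endothelial cells and human MSCs as stroma. AhR antagonists were paired with standard or investigational drugs, each dosed in half-log steps down from near clinical Cmax, or from 10 microM where Cmax was unknown.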

[1] = second compound 0.1 µM, first compound 0.0316 µM
[2] = second compound 0.1 µM, first compound 0.1 µM
[3] = second compound 0.1 µM, first compound 0.316 µM
[4] = second compound 0.1 µM, first compound 1 µM
[5] = second compound 0.1 µM, first compound 3.16 µM
[6] = second compound 0.1 µM, first compound 10 µM
[7] = second compound 0.316 µM, first compound 0.0316 µM
[8] = second compound 0.316 µM, first compound 0.1 µM
[9] = second compound 0.316 µM, first compound 0.316 µM
[10] = second compound 0.316 µM, first compound 1 µM
[11] = second compound 0.316 µM, first compound 3.16 µM
[12] = second compound 0.316 µM, first compound 10 µM
[13] = second compound 1 µM, first compound 0.0316 µM
[14] = second compound 1 µM, first compound 0.1 µM
[15] = second compound 1 µM, first compound 0.316 µM
[16] = second compound 1 µM, first compound 1 µM
[17] = second compound 1 µM, first compound 3.16 µM
[18] = second compound 1 µM, first compound 10 µM
[19] = second compound 3.16 µM, first compound 0.0316 µM
[20] = second compound 3.16 µM, first compound 0.1 µM
[21] = second compound 3.16 µM, first compound 0.316 µM
[22] = second compound 3.16 µM, first compound 1 µM
[23] = second compound 3.16 µM, first compound 3.16 µM
[24] = second compound 3.16 µM, first compound 10 µM
[25] = second compound 10 µM, first compound 0.0316 µM
[26] = second compound 10 µM, first compound 0.1 µM
[27] = second compound 10 µM, first compound 0.316 µM
[28] = second compound 10 µM, first compound 1 µM
[29] = second compound 10 µM, first compound 3.16 µM
[30] = second compound 10 µM, first compound 10 µM
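Throughout, for viability, T/C: spheroids mix tumor cells with HUVEC endothelium and human MSC stroma; luminescence taken as viability surrogate after a week of drug exposure.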

SMILES	IC50 (second compound 0.1 µM) [nM]	IC50 (second compound 0.316 µM) [nM]	IC50 (second compound 1 µM) [nM]	IC50 (second compound 3.16 µM) [nM]	IC50 (second compound 10 µM) [nM]	viability, T/C [1] [%]	viability, T/C [2] [%]	viability, T/C [3] [%]	viability, T/C [4] [%]	viability, T/C [5] [%]	viability, T/C [6] [%]	viability, T/C [7] [%]	viability, T/C [8] [%]	viability, T/C [9] [%]	viability, T/C [10] [%]	viability, T/C [11] [%]	viability, T/C [12] [%]	viability, T/C [13] [%]	viability, T/C [14] [%]	viability, T/C [15] [%]	also measured
COc1cc(Nc2ncc3c(n2)-c2ccc(Cl)cc2C(c2c(F)cccc2OC)=NC3)ccc1C(=O)O + Cc1ccccc1N=Nc1ccc(NC(=O)c2ccnn2C)c(C)c1	> 10000	> 10000	> 10000	> 10000	> 10000	81.3	76	69.8	68.1	63.8	48.5	89.5	79.9	72.4	60.2	71.4	55.4	109	69.8	74.3	viability, T/C [16]: 58.9%; viability, T/C [17]: 62.1%; viability, T/C [18]: 53.9%; viability, T/C [19]: 98.6%; viability, T/C [20]: 77%; viability, T/C [21]: 68.3%; viability, T/C [22]: 74.2%; viability, T/C [23]: 74.7%; viability, T/C [24]: 71.4%; viability, T/C [25]: 122%; viability, T/C [26]: 96.1%; viability, T/C [27]: 94.6%; viability, T/C [28]: 88.5%; viability, T/C [29]: 83.4%; viability, T/C [30]: 90.7%
COc1cccc2c1C(=O)c1c(O)c3c(c(O)c1C2=O)CC(O)(C(=O)CO)CC3OC1CC(N)C(O)C(C)O1 (stereo not given) + Cc1cncc(-c2nc(NCCc3c[nH]c4ccccc34)c3ncn(C(C)C)c3n2)c1	< 31.6	< 31.6	< 31.6	72.6	108	53.6	35.6	36.2	2.01	6.72	11.6	49	35	39.2	0.95	6.23	14.8	51.2	30.6	46.8	viability, T/C [16]: 1.72%; viability, T/C [17]: 5.39%; viability, T/C [18]: 16.6%; viability, T/C [19]: 64.2%; viability, T/C [20]: 37.3%; viability, T/C [21]: 41.3%; viability, T/C [22]: 2.7%; viability, T/C [23]: 8.4%; viability, T/C [24]: 12.2%; viability, T/C [25]: 64.2%; viability, T/C [26]: 48.4%; viability, T/C [27]: 29%; viability, T/C [28]: 0.47%; viability, T/C [29]: 3.33%; viability, T/C [30]: 9.06%
